One data set is described as follows: Aqueous solubility. It is filed as physicochemical.
The next data set deals with Galectin-1 (Homo sapiens, UniProt P09382). As to the kind of experiment: Fluorescence anisotropy assay, inhibition of galectin / fluorescein tagged saccharide probe interaction. The class given is binding. On the procedure:
(§1) The affinity of Example 1-28 for galectins were determined by a fluorescence anisotropy assay where the compound was used as an inhibitor of the interaction between galectin and a fluorescein tagged saccharide probe as described Sörme, P., Kahl-Knutsson, B., Huflejt, M., Nilsson, U. J., and Leffler H. (2004) Fluorescence polarization as an analytical tool to evaluate galectin-ligand interactions. Anal. Biochem. 334: 36-47, (Sörme et al., 2004) and Monovalent interactions of Galectin-1 By Salomonsson, Emma; Larumbe, Amaia; Tejler, Johan; Tullberg, Erik; Rydberg, Hanna; Sundin, Anders; Khabut, Areej; Frejd, Torbjorn; Lobsanov, Yuri D.; Rini, James M.; et al, From Biochemistry (2010), 49(44), 9518-9532, (Salomonsson et al., 2010).
(In general: Fluorescence polarisation rises when a labelled molecule tumbles more slowly, as on binding a larger partner.)

A further data set concerns the target Galectin-3 (Homo sapiens, UniProt P17931). Described as above. It is filed as binding. Here is the method: as §1
A further data set concerns galectins. Particulars: cited from earlier work.

In brackets after ≈: the same amount, converted by molar mass.

Chain of Galectin-3 (P17931 whole entry): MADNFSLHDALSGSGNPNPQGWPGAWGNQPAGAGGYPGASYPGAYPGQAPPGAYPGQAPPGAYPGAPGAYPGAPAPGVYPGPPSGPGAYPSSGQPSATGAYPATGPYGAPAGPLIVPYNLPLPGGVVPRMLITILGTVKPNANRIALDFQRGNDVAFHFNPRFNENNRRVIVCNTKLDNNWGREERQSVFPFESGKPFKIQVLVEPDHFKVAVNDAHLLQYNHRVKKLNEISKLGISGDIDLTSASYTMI
Chain of Galectin-1 (P09382 whole entry): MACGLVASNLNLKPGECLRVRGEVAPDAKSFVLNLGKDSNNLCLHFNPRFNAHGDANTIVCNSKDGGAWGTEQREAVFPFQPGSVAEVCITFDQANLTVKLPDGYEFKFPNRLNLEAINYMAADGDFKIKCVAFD

By solubility is commonly meant the concentration that dissolves in the medium under given conditions. As usually defined, the Kd is the constant that tells how readily two partners part at equilibrium. On to `CS(=O)(=O)NC(=O)COC1C(n2cc(-c3cc(F)c(Cl)c(F)c3)nn2)[C@@H](O)C(CO)O[C@@H]1Sc1ccc(Cl)c(Cl)c1` (stereo in doubt) [Example 9, 3,4-Dichlorphenyl 3-[4-(4-chloro-3,5-difluorophenyl)-1H-1,2,3-triazol-1-yl]-3-deoxy-2-O-[2-(methylsulfonamido)-2-oxoethyl]-1-thio-α-D-galactopyranoside], for which, in “Aqueous solubility”, the concentration in solution (solubility) was 2900 µg/mL (≈ 4.3 mM). The values for the Kd at Galectin-1 and at Galectin-3 were 3 µM and 0.023 µM, respectively.

For the compound `O=C[C@H](O)[C@@H](O)[C@@H](O)[C@H](O)CO` [D-galactose], the “affinity, times lower than lactose” value in the data set with galectins (relative to lactose) was 50-100 times.

For `O=P(O)(O)OCO[C@@H]1[C@@H](n2cc(-c3cc(F)c(F)c(F)c3)nn2)[C@@H](O)[C@@H](CO)O[C@@H]1Sc1cncc(Br)c1` [Example 5, 5-Bromopyridin-3-yl 3-deoxy-3-[4-(3,4,5-trifluorophenyl)-1H-1,2,3-triazol-1-yl]-2-O-[(phosphonooxy)methyl]-1-thio-α-D-galactopyranoside], the solubility in the data set “Aqueous solubility” is more than 10000 µg/mL. Moreover, the Kd was 3.83 µM on Galectin-1 and 0.012 µM at Galectin-3.

In the data set “Aqueous solubility”, `O=C(O)CO[C@@H]1[C@@H](n2cc(-c3cc(F)c(Cl)c(F)c3)nn2)[C@@H](O)[C@@H](CO)O[C@@H]1Sc1ccc(Cl)c(Cl)c1` [Example 7, 3,4-Dichlorphenyl 2-O-carboxymethyl-3-[4-(4-chloro-3,5-difluorophenyl)-1H-1,2,3-triazol-1-yl]-3-deoxy-1-thio-α-D-galactopyranoside] displayed a solubility of 2000 µg/mL (≈ 3.35 mM). For the same compound, the Kd on Galectin-1 was found to be 2 µM; at Galectin-3, 0.0085 µM.

In the data set “Aqueous solubility”, `O=C(O)CO[C@@H]1[C@@H](n2cc(-c3cc(F)c(F)c(F)c3)nn2)[C@@H](O)[C@@H](CO)O[C@@H]1Sc1cncc(Br)c1` [Example 8, 5-Bromopyridin-3-yl 2-O-carboxymethyl-3-deoxy-3-[4-(3,4,5-trifluorophenyl)-1H-1,2,3-triazol-1-yl]-1-thio-α-D-galactopyranoside] registered a solubility of 1800 µg/mL (≈ 3.04 mM). Further, the Kd amounted to 1.8 µM on Galectin-1 and 0.007 µM on Galectin-3.

For `OC[C@H]1O[C@@H](O[C@H]2[C@H](O)[C@@H](O)C(O)O[C@@H]2CO)[C@H](O)[C@@H](O)[C@H]1O` (some centres unmarked) [lactose], the equilibrium dissociation constant (Kd) on galectins (all galectins) was 500 to 1000 µM.
